Measurements published in ChEMBL document CHEMBL4251601 (Eur J Med Chem, 2018).

Key:
[1] = biological target: CDK6/cyclin D3 (Homo sapiens, UniProt Q00534); test: Inhibition of CDK6/Cyclin-D3 (unknown origin) using histoneH1 as substrate after 90 mins by ADP-Glo assay; type: protein-complex assay
[2] = biological target: CDK1/Cyclin A (Homo sapiens, UniProt P06493); test: Inhibition of CDK1/Cyclin-A2 (unknown origin) using histone-H1 as substrate after 90 mins by ADP-Glo assay; type: protein-complex assay
Chain of CDK1/Cyclin A (P06493 whole entry): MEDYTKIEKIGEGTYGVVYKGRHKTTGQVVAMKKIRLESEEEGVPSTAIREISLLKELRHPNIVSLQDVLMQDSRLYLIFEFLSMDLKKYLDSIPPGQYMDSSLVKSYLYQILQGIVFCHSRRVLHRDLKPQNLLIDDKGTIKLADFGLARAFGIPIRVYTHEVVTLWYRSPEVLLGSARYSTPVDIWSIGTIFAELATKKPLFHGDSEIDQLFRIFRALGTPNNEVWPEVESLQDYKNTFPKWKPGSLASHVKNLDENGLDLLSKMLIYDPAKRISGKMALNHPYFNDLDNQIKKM
Chain of CDK1/Cyclin A (P20248 whole entry, further chain): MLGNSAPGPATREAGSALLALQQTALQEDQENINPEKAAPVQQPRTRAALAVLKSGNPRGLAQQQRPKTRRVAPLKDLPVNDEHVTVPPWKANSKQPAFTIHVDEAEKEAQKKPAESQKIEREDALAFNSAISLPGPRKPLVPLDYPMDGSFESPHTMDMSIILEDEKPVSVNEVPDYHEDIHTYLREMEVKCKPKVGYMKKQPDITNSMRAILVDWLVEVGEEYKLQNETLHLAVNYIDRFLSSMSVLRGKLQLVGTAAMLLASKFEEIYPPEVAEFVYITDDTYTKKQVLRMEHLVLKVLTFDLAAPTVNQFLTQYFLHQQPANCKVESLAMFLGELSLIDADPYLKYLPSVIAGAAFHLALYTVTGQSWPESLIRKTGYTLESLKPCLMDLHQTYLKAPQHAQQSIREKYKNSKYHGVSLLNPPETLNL

[3] = organism: Homo sapiens; test: Selectivity ratio of IC50 for CDK1/Cyclin-A2 (unknown origin) to IC50 for CDK6/Cyclin-D3 (unknown origin)
[4] = biological target: Cyclin-dependent kinase 4/cyclin D1 (Homo sapiens, UniProt P11802); test: Inhibition of CDK4/Cyclin-D1 (unknown origin) using histone-H1 as substrate after 90 mins by ADP-Glo assay; type: protein-complex assay
Chain of Cyclin-dependent kinase 4/cyclin D1 (P11802 whole entry): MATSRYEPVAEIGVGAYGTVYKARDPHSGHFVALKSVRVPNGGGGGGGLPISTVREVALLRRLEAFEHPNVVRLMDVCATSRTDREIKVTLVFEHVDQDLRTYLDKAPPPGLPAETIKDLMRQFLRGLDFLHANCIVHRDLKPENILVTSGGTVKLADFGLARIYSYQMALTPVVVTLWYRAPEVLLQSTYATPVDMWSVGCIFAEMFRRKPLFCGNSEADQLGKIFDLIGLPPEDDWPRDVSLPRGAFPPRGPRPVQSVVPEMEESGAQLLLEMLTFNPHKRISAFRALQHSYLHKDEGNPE
Chain of Cyclin-dependent kinase 4/cyclin D1 (P24385 whole entry, further chain): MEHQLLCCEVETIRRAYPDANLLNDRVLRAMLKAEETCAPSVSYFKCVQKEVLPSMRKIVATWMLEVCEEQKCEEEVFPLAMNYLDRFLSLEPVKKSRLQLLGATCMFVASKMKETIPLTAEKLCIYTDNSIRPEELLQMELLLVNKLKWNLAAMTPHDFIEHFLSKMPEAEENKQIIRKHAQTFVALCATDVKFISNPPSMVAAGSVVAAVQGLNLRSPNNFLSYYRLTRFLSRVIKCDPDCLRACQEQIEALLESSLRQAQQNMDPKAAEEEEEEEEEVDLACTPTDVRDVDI

[5] = Cmax in Sprague-Dawley rat at 5 mg/kg, po administered as single dose by LC-MS/MS analysis; type: ADME, organism-based; set-up: dose 5 mg/kg, route oral; settings: in vivo
[6] = AUC (0 to 24 hrs) in Sprague-Dawley rat at 5 mg/kg, po administered as single dose by LC-MS/MS analysis; type: ADME, organism-based; set-up: time < 24 hr, dose 5 mg/kg, route oral; settings: in vivo
[7] = Half life in Sprague-Dawley rat at 2 mg/kg, iv administered as single dose by LC-MS/MS analysis; type: ADME, organism-based; settings: in vivo
[8] = AUC (0 to 24 hrs) in Sprague-Dawley rat at 2 mg/kg, iv administered as single dose by LC-MS/MS analysis; type: ADME, organism-based; set-up: dose 2 mg/kg, time < 24 hr, route intravenous; settings: in vivo
[9] = Clearance in Sprague-Dawley rat at 2 mg/kg, iv administered as single dose by LC-MS/MS analysis; type: ADME, organism-based; settings: in vivo
[10] = Oral bioavailability in Sprague-Dawley rat at 5 mg/kg administered as single dose by LC-MS/MS analysis; type: ADME, organism-based; settings: Sprague-Dawley, in vivo
[11] = AUC (0 to infinity) in Sprague-Dawley rat at 2 mg/kg, iv administered as single dose by LC-MS/MS analysis; type: ADME, organism-based; set-up: dose 2 mg/kg, route intravenous, time infinity; settings: Sprague-Dawley, in vivo
[12] = Volume of distribution at steady state in Sprague-Dawley rat at 2 mg/kg, iv administered as single dose by LC-MS/MS analysis; type: ADME, organism-based; settings: in vivo, read-out: Vdss
[13] = Stability in CD-1 mouse liver microsomes assessed as parent compound remaining at 10 uM preincubated for 5 mins followed by NADP addition measured after 60 mins by LC-MS/MS analysis; type: ADME, microsome; settings: read-out: Stability
[14] = Stability in CD-1 mouse liver microsomes assessed as parent compound remaining at 10 uM measured after 60 mins in absence of NADPH-regenerating system by LC-MS/MS analysis; type: ADME, microsome; settings: read-out: Stability
[15] = Intrinsic clearance in CD-1 mouse liver microsomes at 10 uM preincubated for 5 mins followed by NADP addition by LC-MS/MS analysis; type: ADME, microsome; settings: read-out: CLH
[16] = Half life in CD-1 mouse liver microsomes at 10 uM preincubated for 5 mins followed by NADP addition by LC-MS/MS analysis; type: ADME, microsome
[17] = AUC (0 to infinity) in Sprague-Dawley rat at 5 mg/kg, po administered as single dose by LC-MS/MS analysis; type: ADME, organism-based; set-up: dose 5 mg/kg, route oral, time infinity; settings: Sprague-Dawley, in vivo
[18] = Half life in Sprague-Dawley rat at 5 mg/kg, po administered as single dose by LC-MS/MS analysis; type: ADME, organism-based; settings: in vivo

Chain of CDK6/cyclin D3 (P30281 whole entry): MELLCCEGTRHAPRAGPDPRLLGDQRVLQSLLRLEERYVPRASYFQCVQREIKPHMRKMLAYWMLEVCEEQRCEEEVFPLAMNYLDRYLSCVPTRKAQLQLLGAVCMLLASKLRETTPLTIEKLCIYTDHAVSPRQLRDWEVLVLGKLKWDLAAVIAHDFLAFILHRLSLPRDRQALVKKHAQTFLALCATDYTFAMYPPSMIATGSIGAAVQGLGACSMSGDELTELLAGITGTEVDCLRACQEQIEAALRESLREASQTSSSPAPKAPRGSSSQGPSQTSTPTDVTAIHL
Chain of CDK6/cyclin D3 (Q00534 whole entry): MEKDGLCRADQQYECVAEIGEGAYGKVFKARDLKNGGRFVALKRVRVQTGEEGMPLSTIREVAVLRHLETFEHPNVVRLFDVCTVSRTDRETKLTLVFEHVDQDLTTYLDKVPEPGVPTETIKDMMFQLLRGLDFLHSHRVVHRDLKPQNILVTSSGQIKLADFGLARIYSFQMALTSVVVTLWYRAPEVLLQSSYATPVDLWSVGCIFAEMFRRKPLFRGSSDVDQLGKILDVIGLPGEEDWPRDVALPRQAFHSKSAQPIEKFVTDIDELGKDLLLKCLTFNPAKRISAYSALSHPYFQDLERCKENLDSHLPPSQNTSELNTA

IC50 [1] [nM]	IC50 [2] [nM]	Ratio IC50 [3]	IC50 [4] [nM]	Cmax [5] [ng/mL]	AUC(0-t) at 24 h [6] [ng·h/mL]	half-life [7] [h]	AUC(0-t) at 24 h [8] [ng·h/mL]	clearance [9] [mL/min/kg]	bioavailability [10] [%]	AUC(0-inf) [11] [ng·h/mL]	Vd [12] [L/kg]	remaining at 1 h, 10 µM [13] [%]	remaining at 1 h, 10 µM [14] [%]	microsomal CLint at 10 µM [15] [µL/min/mg]	half-life at 10 µM [16] [h]	AUC(0-inf) [17] [ng·h/mL]	half-life [18] [h]	Structure (SMILES)
16	166	10	–	–	–	–	–	–	–	–	–	–	–	–	–	–	–	CCC1(C)C(C)=Nc2ccc(-c3nc(Nc4ccc(C5CCNCC5)cn4)ncc3F)cc21 (stereo unspecified)
5	112	22	35	–	–	–	–	–	–	–	–	–	–	–	–	–	–	CCC1(C)C(C)=Nc2ccc(-c3nc(Nc4ccc(N5CCN(C)CC5)cn4)ncc3F)cc21 (stereo unspecified)
9	54	6	18	–	–	–	–	–	–	–	–	–	–	–	–	–	–	CCC1(C)C(C)=Nc2ccc(-c3nc(Nc4ccc(C5CCN(C)CC5)cn4)ncc3F)cc21 (stereo unspecified)
4	–	268	6	143	1980	13.2	2250	10.8	35	3190	11.6	–	–	–	–	–	–	CCN1CCC(c2ccc(Nc3ncc(F)c(-c4cc(F)c5c(c4)C4(CCCC4)C(C)=N5)n3)nc2)CC1
3	84	28	44	18	145	3	256	125	23	270	28.1	–	–	–	–	–	–	CCC1(C)C(C)=Nc2c(F)cc(-c3nc(Nc4ccc(N5CCNCC5)cn4)ncc3F)cc21 (stereo unspecified)
4	–	58	4	80.3	980	4.8	1140	28.3	34	1180	11	–	–	–	–	–	–	CC1=Nc2ccc(-c3nc(Nc4ccc(N5CCNCC5)cn4)ncc3F)cc2C12CCCC2
–	96	11	10	–	–	1.4	204	167	–	213	17.9	–	–	–	–	–	–	CCC1(CC)C(C)=Nc2c(F)cc(-c3nc(Nc4ccc(N5CCN(C)CC5)cn4)ncc3F)cc21
6	–	25	8	56.6	671	5.8	949	34.7	28	1000	17.2	24	94.4	49.2	0.47	–	–	CC1=Nc2c(F)cc(-c3nc(Nc4ccc(N5CCNCC5)cn4)ncc3F)cc2C12CCCC2
4	101	25	–	–	–	–	–	–	–	–	–	–	–	–	–	–	–	CCN1CCN(c2ccc(Nc3ncc(F)c(-c4ccc5c(c4)C(C)(CC)C(C)=N5)n3)nc2)CC1 (stereo unspecified)
–	2220	52	–	–	–	–	–	–	–	–	–	–	–	–	–	–	–	CC1=Nc2c(F)cc(-c3nc(Nc4ccc(N5CCNCC5)cn4)ncc3F)cc2C1(C)C
26	966	37	33	58.5	403	5.3	685	50.7	23	696	25.1	–	–	–	–	412	4.7	CCN1CCN(Cc2ccc(Nc3ncc(F)c(-c4cc(F)c5c(c4)C(C)(CC)C(C)=N5)n3)nc2)CC1 (stereo unspecified)
–	–	9	–	–	–	–	–	–	–	–	–	–	–	–	–	–	–	CCN1CCN(Cc2ccc(Nc3ncc(F)c(-c4cc(F)c5c(c4)C(CC)(CC)C(C)=N5)n3)nc2)CC1
0.5	–	352	–	–	–	–	–	–	–	–	–	–	–	–	–	–	–	CC1=Nc2c(F)cc(-c3nc(Nc4ccc(C5CCN(CCO)CC5)cn4)ncc3F)cc2C12CCCC2
4	–	12	8	–	–	–	–	–	–	–	–	–	–	–	–	–	–	CC1=Nc2ccc(-c3nc(Nc4ccc(C5CCN(C)CC5)cn4)ncc3F)cc2C12CCCC2
12	216	18	16	–	–	–	–	–	–	–	–	–	–	–	–	–	–	CCN1CCC(c2ccc(Nc3ncc(F)c(-c4cc(F)c5c(c4)C(C)(CC)C(C)=N5)n3)nc2)CC1 (stereo unspecified)
9	131	14	16	22.3	287	7	404	77.8	28	447	40.1	–	–	–	–	–	–	CCC1(C)C(C)=Nc2c(F)cc(-c3nc(Nc4ccc(C5CCN(C)CC5)cn4)ncc3F)cc21 (stereo unspecified)

IC50 [1] [nM]	IC50 [2] [nM]	Ratio IC50 [3]	IC50 [4] [nM]	Cmax [5] [ng/mL]	AUC(0-t) at 24 h [6] [ng·h/mL]	half-life [7] [h]	AUC(0-t) at 24 h [8] [ng·h/mL]	clearance [9] [mL/min/kg]	bioavailability [10] [%]	AUC(0-inf) [11] [ng·h/mL]	Vd [12] [L/kg]	remaining at 1 h, 10 µM [13] [%]	remaining at 1 h, 10 µM [14] [%]	microsomal CLint at 10 µM [15] [µL/min/mg]	half-life at 10 µM [16] [h]	AUC(0-inf) [17] [ng·h/mL]	half-life [18] [h]	Structure (SMILES)
–	–	16	–	37	386	3.8	761	42.3	21	796	8.5	–	–	–	–	420	5.1	CC1=Nc2c(F)cc(-c3nc(Nc4ccc(N5CCN(C)CC5)cn4)ncc3F)cc2C12CCCC2
–	–	5	–	–	–	–	–	–	–	–	–	–	–	–	–	–	–	CCN1CCC(c2ccc(Nc3ncc(F)c(-c4ccc5c(c4)C4(CCCC4)C(C)=N5)n3)nc2)CC1
1	153	153	6	–	–	2.1	496	69.2	–	504	6.4	–	–	–	–	–	–	CCC1(C)C(C)=Nc2c(F)cc(-c3nc(Nc4ccc(N5CCN(C)CC5)cn4)ncc3F)cc21 (stereo unspecified)
4	–	7	4	–	–	–	–	–	–	–	–	–	–	–	–	–	–	CC1=Nc2ccc(-c3nc(Nc4ccc(C5CCNCC5)cn4)ncc3F)cc2C12CCCC2
10	1060	106	78	–	–	–	–	–	–	–	–	–	–	–	–	–	–	CC1=Nc2c(F)cc(-c3nc(Nc4ccc(N5CCN(C(C)C)CC5)cn4)ncc3F)cc2C12CCCC2
9	–	46	15	28.9	269	4.8	442	72.9	24	458	15.7	–	–	–	–	382	–	CC1=Nc2ccc(-c3nc(Nc4ccc(N5CCN(C)CC5)cn4)ncc3F)cc2C12CCCC2
–	65	1	–	–	–	–	–	–	–	–	–	–	–	–	–	–	–	CCN1CCN(c2ccc(Nc3ncc(F)c(-c4cc(F)c5c(c4)C(C)(CC)C(C)=N5)n3)nc2)CC1 (stereo unspecified)
7	–	38	13	–	–	–	–	–	–	–	–	–	–	–	–	–	–	CCN1CCN(Cc2ccc(Nc3ncc(F)c(-c4ccc5c(c4)C4(CCCC4)C(C)=N5)n3)nc2)CC1
0.4	–	818	8	62.1	867	8.6	1200	24.6	29	1370	15.6	–	–	–	–	–	–	CC1=Nc2c(F)cc(-c3nc(Nc4ccc(C5CCNCC5)cn4)ncc3F)cc2C12CCCC2
–	142	14	28	–	–	–	–	–	–	–	–	–	–	–	–	–	–	CCC1(C)C(C)=Nc2ccc(-c3nc(Nc4ccc(N5CCNCC5)cn4)ncc3F)cc21 (stereo unspecified)
6	–	55	17	–	–	–	–	–	–	–	–	–	–	–	–	–	–	CC1=Nc2c(F)cc(-c3nc(Nc4ccc(N5CCN(CCO)CC5)cn4)ncc3F)cc2C12CCCC2
3	–	27	3	13.7	106	3	256	125	16	270	28.1	–	–	–	–	–	–	CCC1(CC)C(C)=Nc2c(F)cc(-c3nc(Nc4ccc(N5CCNCC5)cn4)ncc3F)cc21
16	–	–	18	70.4	842	7	2110	15	16	2230	5.7	–	–	–	–	1360	9.8	CCN1CCN(c2ccc(Nc3ncc(F)c(-c4cc(F)c5c(c4)C4(CCCC4)C(C)=N5)n3)nc2)CC1
19	125	6	42	–	–	–	–	–	–	–	–	–	–	–	–	–	–	CCN1CCC(c2ccc(Nc3ncc(F)c(-c4ccc5c(c4)C(C)(CC)C(C)=N5)n3)nc2)CC1 (stereo unspecified)
6	110	18	–	–	–	–	–	–	–	–	–	–	–	–	–	–	–	CCC1(C)C(C)=Nc2c(F)cc(-c3nc(Nc4ccc(C5CCNCC5)cn4)ncc3F)cc21 (stereo unspecified)
